Assay results: BindingDB's records for doi:10.1021/jm300576q (Georgetown University Medical Center, 2012)

Assay: Inhibition of VEGFR2-mediated angiogenesis in human HUVEC cells after 24 hrs by inverted photomicroscopic analysis

IC50: 8.8 µM
Structure (SMILES): COC(=O)Nc1nc2ccc(C(=O)c3ccccc3)cc2[nH]1 [methyl (5-benzoyl-1H-benzimidazol-2-yl)carbamate]
